From ChEMBL document CHEMBL5579831, “Discovery of novel CXCR4 inhibitors for the treatment of inflammation by virtual screening and biological evaluation” (Eur J Med Chem, 2024) come the findings set out here.

Activity calls are given as the source filed them. The rule behind the calls is not given here.

Data set [1] addresses T1, C-X-C chemokine receptor type 4 (Homo sapiens, UniProt P61073). The data set can be described thus: Inhibition of fluorescently labeled 12G5 antibodies binding to CXCR4 in human MDA-MB-231 cells assessed as change in fluorescence intensity incubated for 3 hrs under dark condition by FACS assay. In kind it is cell-based.
Data set [2] concerns MDA-MB-231. The data set can be described thus: Inhibition of CXCR4/CXCL12 interaction in human MDA-MB-231 cells assessed as reduction in cell invasion at 100 nM measured after 24 hrs by H and E staining based matrix gel invasion assay.
Data set [3] has as its system MDA-MB-231. The data set can be described thus: Inhibition of cell migration in human MDA-MB-231 cells at 100 nM measured after 24 hrs by wound healing based inverted microscopic analysis. The format is functional.
In data set [4] the test system is MDA-MB-231. The data set can be described thus: Inhibition of CXCR4/CXCL12-mediated AKT phosphorylation in human MDA-MB-231 cells by Western blot analysis. The format is cell-based. The conditions noted are these: dose 0.1-100 nM.
In data set [5] the target is T1, C-X-C chemokine receptor type 4. The data set can be described thus: Binding affinity to CXCR4 in human MDA-MB-231 cells assessed as increase in thermal stability at 50 to 55 degreeC at 100 nM incubated for 12 hrs by CETSA. In kind it is cell-based.
For data set [6], the system named is Mus musculus. The data set can be described thus: Antiinflammatory activity in ip dosed xylene-induced mouse ear swelling model assessed as reduction in ear swelling pretreated with xylene for 30 mins followed by compound addition and measured after 2 hrs. In kind it is functional, organism-based. The conditions noted are these: dose 10-30 mg/kg.
Data set [7] relates to Mus musculus. The data set can be described thus: Antiinflammatory activity in xylene-induced mouse ear swelling model assessed as reduction in inflammatory cell infiltration at 10 to 30 mg/kg, ip pretreated with xylene for 30 mins followed by compound addition and measured after 2 hrs by H and E staining based light microscopic analysis. In kind it is functional, organism-based. The conditions noted are these: dose 10-30 mg/kg.

A short description of data set [8]: Toxicity in ip dosed mouse assessed as median lethal dose by Bliss method. The format is organism-based. The conditions noted are these: in vivo, read-out: LD.
For data set [9], the system named is MDA-MB-231. The data set can be described thus: Cytotoxicity against human MDA-MB-231 cells assessed as reduction in cell viability at 10 uM incubated for 24 hrs by MTT assay. The conditions noted are these: mda-mb-231, 24 h. The format is toxicity, cell-based.

T1 sequence (P61073 whole entry): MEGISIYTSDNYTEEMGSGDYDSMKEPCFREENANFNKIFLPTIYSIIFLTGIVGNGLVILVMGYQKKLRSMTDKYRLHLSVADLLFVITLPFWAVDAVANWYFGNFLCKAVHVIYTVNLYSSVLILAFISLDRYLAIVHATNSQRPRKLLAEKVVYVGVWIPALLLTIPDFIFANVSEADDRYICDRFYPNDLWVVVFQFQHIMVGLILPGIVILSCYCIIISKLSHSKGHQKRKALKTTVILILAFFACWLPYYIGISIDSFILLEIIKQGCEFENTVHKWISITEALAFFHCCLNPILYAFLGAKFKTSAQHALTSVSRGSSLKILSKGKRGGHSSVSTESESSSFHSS

With `O=S(=O)(NCC1CCCO1)c1ccc(Oc2ccc(S(=O)(=O)NCC3CCCO3)cc2)cc1` (centres undefined), the IC50 in [1] is 254 nM. For the same compound, the inhibition entry with MDA-MB-231 [2] and with MDA-MB-231 [3] was “Active” each time. In the data set with MDA-MB-231 [4], the inhibition entry was “Dose-Dependent Effect”. Moreover, the result (in data set [5]; in the data set with Mus musculus [7]) was Active. In addition, the Activity result in the data set with Mus musculus [6] is “Dose-Dependent Effect”; with MDA-MB-231 [9] it was “Non-Toxic”. In addition, the LD50 in data set [8] worked out at 72.6 mg/kg.
